Measured values from patent US20060025430A1, “Novel irreversible inhibitors of epidermal growth factor receptor tyrosine kinase and uses thereof for therapy and diagnosis” (priority 2003, published 2006).

Legend:
[1] = Challenge reaction with reduced glutathione (HPLC conversion to conjugates); type: physicochemical
Method: Standard solutions were prepared by dissolving compound 5, Compound 6 and {4-[(3,4-dichloro-6-fluorophenyl)amino]quinazol ine-6-yl}acrylamide (0.0146 mmol) in 1.75 ml of THF: MeOH (1:2) and glutathione (18 mg, 0.0586 mmol) in 0.5 ml of water. A 300 μL aliquot of the quinazoline standard solution (2.5 μmol) was diluted with 689 μL of THF:MeOH:H2O (1:2:1), after which 11 μL (1.25 μmol) of glutathione solution and 5.22 μL (30 μmol) of N,N′-diisopropylethylamine were added. Conversions of the quinazolines and formation of conjugates at different time points were measured by HPLC using RP (3.9×300 mm) column (mobile phase of acetonirile and acetate buffer 0.1 M (2:3) at a flow rate of 1 ml/min was used herein). The glutathione conjugates were further detected by MS.
As discussed hereinabove, EGFR blockade by irreversible inhibitors is due to the nucleophilic attack of the sulfhydryl group of Cys-773 at the receptor's ATP binding pocket on the reactive chemical group of the EGFR targeted inhibitor. In order to evaluate the chemical reactivity of the novel irreversibly EGFR inhibitors decribed herein, the degree of reactivity of the inhibitors towards the sulfhydryl group of reduced glutathione (GSH) as a nucleophile was tested. Thus, Compound 5, Compound 6 and {4-[(3,4-dichloro-6-fluorophenyl)amino]quinazoline-6-yl}acrylamide were dissolved in THF: MeOH: H2O (1:2:1), and were reacted at room temperature with half an equivalent of reduced glutathione in the presence of 12 equivalents of N,N-diisopropylethylamine. Identical aliquots of the reaction mixtures were taken at various time points and injected into reversed-phase HPLC in order to determine the conversion-rate of the various compounds into glutathione-conjugates. The characteristics of the products were determined using MS.
A study of the reaction rate as a function of the temperature was also performed. Thus, the reaction ws performed at various temperatures ranging from 0° C. and 60° C. The following activation parameters were generated: For {4-[(3,4-dichloro-6-fluorophenyl)amino]quinazoline-6-yl}acrylamide: Ea=5.24 kCalmol^−1, ΔH^#25° C.=4.64 kCalmol^−1 and ΔS^#25° C.=−61.24 Calmol^−1K^−1. For compound 5: Ea=11.4 kCalmol^−1, ΔH^#25° C.=10.80 kCalmol^−1 and ΔS^#25° C.=−41.29 Calmol^−1K^−1.
The reaction rate was calculated using the following rate equation: [formula] kobs=Ae^−Ea/RT

With O=C(CCl)Nc1ccc2ncnc(Nc3cc(Cl)c(Cl)cc3F)c2c1 [Compound 5, N-{4-[(4,5-Dichloro-2-fluoro-phenyl)amino]-quinazolin-6-yl}-2-chloroacetamide] the melting point was > 300 °C, the “ΔH^# 25° C. of reaction with reduced glutathione” value ([1]; 25° C.) was 10.80 kCalmol^−1 and the “ΔS^# 25° C. of reaction with reduced glutathione” value ([1]; 25° C.) was −41.29 Calmol^−1K^−1. For the same compound, the “activation energy Ea of reaction with reduced glutathione” value ([1]; temperatures from 0° C. to 60° C.) was 11.4 kCalmol^−1.
